Molecules are shown by their SMILES.

Assay [1] concerns Brontispa longissima. The assay is described as follows: Antifeedant activity against third-instar larval stage of Brontispa longissima in […] assessed as decrease in leaf surface consumption treated for 30 secs prior to larval infestation measured after 48 hr by leaf-dipping method. In kind it is functional.
Assay [2] relates to Brontispa longissima. The assay is described as follows: Ratio of compound AFC50 to combrestatin A-4 AFC50 for third-instar larval stage of Brontispa longissima. In kind it is functional.

With `COc1cc(/C=C\c2cc(Cl)cc(Cl)c2)cc(OC)c1OC`, in the assay on Brontispa longissima [1], the AFC50 was determined as 2.234 mg/mL and the pAFC50 is listed as -0.35. Moreover, the Ratio in the assay on Brontispa longissima [2] worked out at 5.

In the case of `CC(=O)Oc1ccc(/C=C\c2ccc(OC(C)=O)c(OC(C)=O)c2)cc1`, in the assay on Brontispa longissima [1], the AFC50 came out at 0.64 mg/mL and the pAFC50 is listed as 0.19.

Take `COc1cc(/C=C\c2ccc([N+](=O)[O-])cc2[N+](=O)[O-])cc(OC)c1OC`: in the assay with Brontispa longissima [1], the AFC50 is 1.05 mg/mL and the pAFC50 is listed as -0.02. For the same compound, the Ratio in the assay on Brontispa longissima [2] is reported as 5.

Regarding `COc1ccc(/C=C(/C(N)=O)c2cc(OC)c(OC)c(OC)c2)cc1O`, in the assay with Brontispa longissima [1], the AFC50 was 0.736 mg/mL and the pAFC50 is given as 0.13.

`COc1cc(/C=C\c2ccccc2)cc(OC)c1OC`: in the assay with Brontispa longissima [1], the AFC50 stood at 0.529 mg/mL and the pAFC50 was 0.28.

As for `O=[N+]([O-])c1ccc(/C=C\c2ccc(O)cc2)cc1`, in the assay with Brontispa longissima [1], the AFC50 is 1.185 mg/mL and the pAFC50 is listed as -0.07.

`COc1ccc(/C=C\c2ccc(O)cc2)cc1[N+](=O)[O-]`: in the assay on Brontispa longissima [1], the AFC50 is 1.301 mg/mL and the pAFC50 was -0.11.

Consider `COc1ccc(/C=C(/C#N)c2cc(OC)c(OC)c(OC)c2)cc1O`, for which, in the assay with Brontispa longissima [1], the AFC50 is 0.431 mg/mL and the pAFC50 is 0.36.

In the case of `COc1ccc(/C=C\c2ccc(OC(C)=O)cc2)cc1OC(C)=O`, in the assay with Brontispa longissima [1], the AFC50 turned out to be 2.501 mg/mL and the pAFC50 is -0.4.

As for `COc1ccc(/C=C\c2ccc(OC(C)=O)cc2)cc1`, in the assay on Brontispa longissima [1], the AFC50 came out at 0.732 mg/mL and the pAFC50 worked out at 0.14.

As for `COc1ccc(/C=C\c2cc(OC)c(OC)c(OC)c2)cc1O` [COMBRETASTATIN A4], in the assay on Brontispa longissima [1], the AFC50 is 0.218 mg/mL and the pAFC50 was 0.66.

As for `COc1cc(/C=C\c2ccc(Cl)cc2)cc(OC)c1OC`, in the assay with Brontispa longissima [1], the AFC50 worked out at 1.634 mg/mL and the pAFC50 is given as -0.21.

With `COc1ccc(/C=C(/C(=O)O)c2cc(OC)c(OC)c(OC)c2)cc1O`, in the assay with Brontispa longissima [1], the AFC50 came out at 1.461 mg/mL and the pAFC50 is reported as -0.17. In addition, in the assay with Brontispa longissima [2], the Ratio was 7.

For the compound `COc1cc(/C=C\c2ccc(OC(C)=O)cc2)cc(OC)c1OC`, in the assay with Brontispa longissima [1], the AFC50 stood at 0.843 mg/mL and the pAFC50 is listed as 0.07. Also, the Ratio with Brontispa longissima [2] is reported as 3.

Take `COc1ccc(/C=C(/CO)c2cc(OC)c(OC)c(OC)c2)cc1O`: in the assay on Brontispa longissima [1], the AFC50 stood at 0.226 mg/mL and the pAFC50 was determined as 0.65.

Regarding `COc1cc(/C=C\c2ccc(OC(C)=O)c(OC(C)=O)c2)cc(OC)c1OC`, in the assay with Brontispa longissima [1], the AFC50 was determined as 1.918 mg/mL and the pAFC50 is listed as -0.28.

Consider `COc1cc(/C=C\c2ccc3c(c2)OCO3)cc(OC)c1OC`, for which, in the assay with Brontispa longissima [1], the AFC50 stood at 0.731 mg/mL and the pAFC50 stood at 0.14.

In the case of `Oc1ccc(/C=C\c2ccc(Cl)cc2)cc1`, in the assay with Brontispa longissima [1], the AFC50 was found to be 0.412 mg/mL and the pAFC50 is recorded as 0.39.

On to `Oc1ccc(/C=C\c2ccccc2)cc1`, for which, in the assay on Brontispa longissima [1], the AFC50 amounted to 1.161 mg/mL and the pAFC50 was -0.06.

Regarding `COc1cc(/C=C\c2ccc(O)cc2)cc(OC)c1OC`, in the assay on Brontispa longissima [1], the AFC50 is 1.261 mg/mL and the pAFC50 was -0.1.

Take `COc1ccc(/C=C\c2cc(OC)c(OC)c(OC)c2)cc1`: in the assay with Brontispa longissima [1], the AFC50 stood at 0.327 mg/mL and the pAFC50 is recorded as 0.48.

For `Oc1ccc(/C=C/c2cc(O)cc(O)c2)cc1` [RESVERATROL], the AFC50 with Brontispa longissima [1] turned out to be 0.816 mg/mL.

On to `COC(=O)/C(=C/c1ccc(OC)c(O)c1)c1cc(OC)c(OC)c(OC)c1`, for which, in the assay with Brontispa longissima [1], the AFC50 was 1.453 mg/mL and the pAFC50 is given as -0.16. In addition, the Ratio with Brontispa longissima [2] stood at 7.

Regarding `COc1cc(/C=C\c2ccc([N+](=O)[O-])cc2)cc(OC)c1OC`, in the assay on Brontispa longissima [1], the AFC50 came out at 0.982 mg/mL and the pAFC50 amounted to 0.01. Besides, the Ratio in the assay with Brontispa longissima [2] turned out to be 3.

Consider `COc1ccc(/C=C/c2cc(OC)c(OC)c(OC)c2)cc1O` [E-COMBRETASTATIN A-4], for which, in the assay with Brontispa longissima [1], the AFC50 came out at 0.357 mg/mL and the pAFC50 is recorded as 0.45.

As for `Oc1ccc(/C=C\c2ccc3c(c2)OCO3)cc1`, in the assay on Brontispa longissima [1], the AFC50 was 1.005 mg/mL and the pAFC50 was found to be 0.

For the origin of these results see ChEMBL document CHEMBL3045035, “Synthesis and insect antifeedant activity of stilbene derivatives against Brontispa longissima Larvae” (2013).
